The subject of one test is COX II enzyme. The settings on record: E. Meade et al; Futaki et al; cited from earlier work.
A further test deals with carrageenan foot edema. As to the kind of experiment: Rat Carrageenan Foot Pad Edema Test. It is filed as in vivo, rat (Male Sprague-Dawley). As to conditions: oral, 3 hours after carrageenan, read-out: RAT PAW EDEMA % Inhibition; for inhibition at 20 mg/kg: @ 20 mg/kg body weight. As to the method: Male Sprague-Dawley rats were selected in each group so that the average body weight was as close as possible. Rats were fasted with free access to water for over sixteen hours prior to the test. […] One hour later a subplantar injection of 0.1 mL of 1% solution of carrageenan/sterile 0.9% saline was administered and the volume of the injected foot was measured with a displacement plethysmometer connected to a pressure transducer with a digital indicator. Three hours after the injection of the carrageenan, the volume of the foot was again measured. […] Rat Carrageenan-induced Analgesia Test
(In the carrageenan paw model, swelling and tenderness develop within hours.)

The target in the next test is human COX-I (Homo sapiens, UniProt P23219). As to the kind of experiment: COX I activity in vitro, human (PGE2 by ELISA).
Chain of human COX-I (P23219 24-599): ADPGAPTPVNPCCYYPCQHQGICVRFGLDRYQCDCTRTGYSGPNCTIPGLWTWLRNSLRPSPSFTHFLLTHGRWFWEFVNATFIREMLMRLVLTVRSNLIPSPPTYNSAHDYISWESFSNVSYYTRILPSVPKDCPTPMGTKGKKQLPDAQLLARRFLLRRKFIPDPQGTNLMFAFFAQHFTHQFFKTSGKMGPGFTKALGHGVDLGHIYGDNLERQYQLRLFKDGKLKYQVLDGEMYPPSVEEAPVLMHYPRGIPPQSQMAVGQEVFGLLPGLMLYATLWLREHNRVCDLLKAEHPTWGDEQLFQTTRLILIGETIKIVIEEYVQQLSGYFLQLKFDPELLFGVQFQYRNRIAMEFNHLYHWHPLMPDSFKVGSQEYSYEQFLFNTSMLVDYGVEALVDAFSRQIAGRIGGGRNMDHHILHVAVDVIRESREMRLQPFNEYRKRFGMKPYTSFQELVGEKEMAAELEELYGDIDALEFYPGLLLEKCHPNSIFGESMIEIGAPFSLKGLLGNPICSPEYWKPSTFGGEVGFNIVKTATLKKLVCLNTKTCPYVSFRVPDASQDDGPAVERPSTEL
The target of another test is T1, murine COX-I (Mus musculus, UniProt P22437).
T1 sequence (P22437 27-602): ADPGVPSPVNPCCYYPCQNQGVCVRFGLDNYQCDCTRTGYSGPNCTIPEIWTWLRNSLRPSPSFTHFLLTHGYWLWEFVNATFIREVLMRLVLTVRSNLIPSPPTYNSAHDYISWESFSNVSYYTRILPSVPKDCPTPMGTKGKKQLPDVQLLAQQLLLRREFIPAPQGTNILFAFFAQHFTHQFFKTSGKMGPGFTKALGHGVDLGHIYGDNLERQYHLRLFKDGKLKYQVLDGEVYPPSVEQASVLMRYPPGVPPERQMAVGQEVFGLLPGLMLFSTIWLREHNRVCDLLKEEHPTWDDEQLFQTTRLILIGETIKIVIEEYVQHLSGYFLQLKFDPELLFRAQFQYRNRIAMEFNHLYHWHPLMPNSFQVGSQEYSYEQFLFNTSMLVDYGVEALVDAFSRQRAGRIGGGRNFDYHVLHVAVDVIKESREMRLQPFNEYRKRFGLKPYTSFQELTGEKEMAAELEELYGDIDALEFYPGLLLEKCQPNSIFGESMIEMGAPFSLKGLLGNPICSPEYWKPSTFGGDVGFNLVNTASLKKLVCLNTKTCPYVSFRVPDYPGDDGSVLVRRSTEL
The test can be described thus: COX I activity in vitro, murine (PGE2 by ELISA). On the technique in general: In an ELISA, binding on a coated surface is turned into a signal by an enzyme label.

The target in the next test is T2, human COX-II (Homo sapiens, UniProt P35354).
T2 sequence (P35354 18-604): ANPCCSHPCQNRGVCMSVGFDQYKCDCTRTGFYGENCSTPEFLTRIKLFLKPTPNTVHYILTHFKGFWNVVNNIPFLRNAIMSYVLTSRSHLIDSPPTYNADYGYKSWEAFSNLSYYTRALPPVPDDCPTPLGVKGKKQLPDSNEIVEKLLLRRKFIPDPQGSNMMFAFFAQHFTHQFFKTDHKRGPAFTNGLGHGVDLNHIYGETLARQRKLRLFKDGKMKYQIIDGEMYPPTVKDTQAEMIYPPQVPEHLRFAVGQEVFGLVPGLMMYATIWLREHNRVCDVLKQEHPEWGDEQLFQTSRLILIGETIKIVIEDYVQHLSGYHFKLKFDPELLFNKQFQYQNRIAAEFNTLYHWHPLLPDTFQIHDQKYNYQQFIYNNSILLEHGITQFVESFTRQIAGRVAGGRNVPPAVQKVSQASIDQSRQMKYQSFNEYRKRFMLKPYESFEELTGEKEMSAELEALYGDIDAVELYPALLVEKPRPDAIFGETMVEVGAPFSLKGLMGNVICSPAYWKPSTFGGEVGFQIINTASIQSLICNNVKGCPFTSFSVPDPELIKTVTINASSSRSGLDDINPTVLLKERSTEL
The test can be described thus: COX II activity in vitro, human (PGE2 by ELISA).

The target in a further test is T3, murine COX-II (Mus musculus, UniProt Q05769).
T3 sequence (Q05769 18-604): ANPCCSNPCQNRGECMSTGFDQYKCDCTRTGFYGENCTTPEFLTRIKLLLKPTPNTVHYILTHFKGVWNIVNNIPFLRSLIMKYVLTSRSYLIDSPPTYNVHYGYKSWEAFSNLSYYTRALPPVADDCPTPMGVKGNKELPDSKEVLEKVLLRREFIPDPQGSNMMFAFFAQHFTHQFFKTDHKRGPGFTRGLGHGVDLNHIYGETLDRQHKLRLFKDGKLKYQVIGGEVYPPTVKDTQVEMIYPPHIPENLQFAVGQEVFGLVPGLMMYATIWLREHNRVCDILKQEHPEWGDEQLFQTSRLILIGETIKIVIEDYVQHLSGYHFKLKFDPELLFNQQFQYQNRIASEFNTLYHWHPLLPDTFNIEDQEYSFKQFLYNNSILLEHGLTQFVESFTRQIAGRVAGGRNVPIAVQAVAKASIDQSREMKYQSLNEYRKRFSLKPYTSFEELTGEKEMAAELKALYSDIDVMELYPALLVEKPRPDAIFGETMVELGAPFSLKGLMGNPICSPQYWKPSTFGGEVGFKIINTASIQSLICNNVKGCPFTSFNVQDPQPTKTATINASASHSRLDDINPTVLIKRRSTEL
The test can be described thus: biochemical.

The test system of test [1] is carrageenan-induced hyperalgesic foot withdrawal. The test can be described thus: Rat Carrageenan-induced Analgesia Test. It is filed as in vivo, rat (Male Sprague-Dawley). As to conditions: for inhibition at 20 mg/kg: read-out: ANALGESIA % Inhibition, @ 20 mg/kg body weight, oral, 3 hours after carrageenan. Here is the method:
The carrageenan foot edema test was performed with materials, reagents and procedures essentially as described by Winter, et al., (Proc. Soc. Exp. Biol. Med., 111, 544 (1962)). Male Sprague-Dawley rats were selected in each group so that the average body weight was as close as possible. Rats were fasted with free access to water for over sixteen hours prior to the test. The rats were dosed orally (1 mL) with compounds suspended in vehicle containing 0.5% methylcellulose and 0.025% surfactant, or with vehicle alone. One hour later a subplantar injection of 0.1 mL of 1% solution of carrageenan/sterile 0.9% saline was administered and the volume of the injected foot was measured with a displacement plethysmometer connected to a pressure transducer with a digital indicator. Three hours after the injection of the carrageenan, the volume of the foot was again measured. The average foot swelling in a group of drug-treated animals was compared with that of a group of placebo-treated animals and the percentage inhibition of edema was determined (Otterness and Bliven, Laboratory Models for Testing NSAIDS, in Non-steroidal Anti-Inflammatory Drugs, (J. Lombardino, ed. 1985)). […] Rat Carrageenan-induced Analgesia Test
The analgesia test using rat carrageenan was performed with materials, reagents and procedures essentially as described by Hargreaves, et al., (Pain, 32, 77 (1988)). Male Sprague-Dawley rats were treated as previously described for the Carrageenan Foot Pad Edema test. Three hours after the injection of the carrageenan, the rats were placed in a special plexiglass container with a transparent floor having a high intensity lamp as a radiant heat source, positionable under the floor. After an initial twenty minute period, thermal stimulation was begun on either the injected foot or on the contralateral uninjected foot. […] The time until the rat withdraws its foot was then measured. The withdrawal latency in seconds was determined for the control and drug-treated groups, and percent inhibition of the hyperalgesic foot withdrawal determined.

The values that follow come from patent US5668161A, “Substituted thiazoles for the treatment of inflammation” (G.D. Searle & Co., priority 1996, dated 1997).

With `COc1ccc2cc(CC(=O)O)ccc2c1` [6-methoxy-2-napthylacetic acid], the “inhibition of the COX II enzyme” value in the test on COX II enzyme is on record as “selectively inhibit the COX II enzyme”.

The term IC50 denotes the midpoint of a concentration-inhibition curve. Turning to `CS(=O)(=O)c1ccc(-c2sc(-c3ccc(F)c(Cl)c3)nc2-c2ccc(F)cc2)cc1` [Example 12, 2-(3-Chloro-4-fluorophenyl)-4-(4-fluorophenyl)-5-(4-methylsulfonylphenyl)thiazole], in the test on carrageenan foot edema, the inhibition at 20 mg/kg came to 53%. Besides, the half-inhibitory concentration (IC50) is over 10000 nM at human COX-I, 1600 nM on murine COX-I, under 100 nM at human COX-II and under 100 nM against murine COX-II.

`CS(=O)(=O)c1ccc(-c2sc(COc3cc(Cl)cc(Cl)c3)nc2-c2ccc(F)cc2)cc1` [Example 33, 2-[(3,5-Dichlorophenoxy)methyl)-4-(4-fluorophenyl)-5-[4-(methylsulfonyl)phenyl]thiazole]: in the test on carrageenan foot edema, the inhibition at 20 mg/kg is 36%. The results for the IC50 at human COX-I and at human COX-II were over 100000 nM and under 100 nM, respectively. For the same compound, the inhibition at 30 mg/kg in test [1] (read-out: ANALGESIA % Inhibition, a @ 30 mg/kg, oral, 3 hours after carrageenan) amounted to 34%.

On to `CS(=O)(=O)c1ccc(-c2sc(NCc3ccccc3)nc2-c2ccc(F)cc2)cc1` [Example 29, 4-(4-Fluorophenyl)-5-(4-methylsulfonylphenyl)-2-benzylaminothiazole], for which the values for the inhibition at 20 mg/kg (in the test with carrageenan foot edema; in test [1]) were 42% and 24%, respectively. Also, the IC50 against murine COX-I amounted to 500 nM; against murine COX-II it was 100 nM.

Take `CS(=O)(=O)c1ccc(-c2sc(-c3c(F)c(F)c(F)c(F)c3F)nc2-c2ccc(F)cc2)cc1` [Example 57]: in the test on carrageenan foot edema (*@ 10 mg/kg), the inhibition at 10 mg/kg turned out to be 2%. Also, the IC50 at human COX-I was over 100000 nM; on murine COX-I, 4900 nM; at human COX-II, under 100 nM; against murine COX-II, over 100 nM.

As for `CS(=O)(=O)c1ccc(-c2sc(C(F)(F)F)nc2-c2ccc(F)cc2)cc1` [Example 23, 4-(4-Fluorophenyl)-5-(4-methylsulfonylphenyl)-2-trifluoromethylthiazole], the inhibition at 20 mg/kg in the test with carrageenan foot edema came to 39.5%. Besides, the IC50 against human COX-I was 1100 nM; on murine COX-I, 700 nM; against human COX-II, under 100 nM; at murine COX-II it was under 100 nM.

For the compound `CS(=O)(=O)c1ccc(-c2sc(-c3ccccc3Cl)nc2-c2ccc(F)cc2)cc1` [Example 16, 2-(2-Chlorophenyl)-4-(4-fluorophenyl)-5-(4-methylsulfonylphenyl)thiazole], the inhibition at 20 mg/kg in the test on carrageenan foot edema was 50%; in test [1], 27%. The results for the IC50 at murine COX-I, against human COX-II and at murine COX-II were over 10000 nM, under 100 nM and under 100 nM, respectively.

As to `CS(=O)(=O)Nc1ccc([N+](=O)[O-])cc1OC1CCCCC1` [N-(2-cyclohexyloxy-4-nitrophenyl)methanesulfonamide], the “inhibition of the COX II enzyme” value in the test on COX II enzyme was “inhibits the COX II enzyme”.
